The values that follow come from patent US20230338564A1, “NEODEGRADER CONJUGATES” (Orum Therapeutics, Inc., priority 2020, published 2023).

Assay in all cases: In vitro antiproliferation assay, General Procedure 1 (WST-8)
Format in all cases: cell-based
On the technique in general: Tetrazolium dyes change colour on reduction, which living cells bring about.

Assay [1] deals with JHUEM-3 cell line (Uterus). On the procedure:
(§1) The ability of neoDegrader conjugates to inhibit cell growth was measured using in vitro anti-proliferation assay. […] Conjugates were diluted in complete cell growth medium using 4-fold serial dilutions and 100 µL was added per well. […] Viability of remaining cells was determined by colorimetric WST-8 assay (Dojindo Molecular Technologies, Inc., Rockville, MD, US). WST-8 was added to 10% of the final volume and plates were incubated at 37° C. in a humidified 5% CO2 incubator for 2-4 hours. Plates were analyzed by measuring the absorbance at 450 nm (A450) in a multi-well plate reader. Background A450 absorbance of wells with media and WST-8 only was subtracted from all values. The percent viability was calculated by dividing each treated sample value by the average value of wells with untreated cells. The percent viability value was plotted against the test sample concentration in a semi-log plot for each treatment. IC50 values were calculated automatically.

For assay [2], the system named is SK-BR-3 breast cancer cell line. On the procedure:
as §1

Assay [3] has as its system BT-474 breast cancer cell line. As to conditions: Homo sapiens, BT-474, read-out: IC50, BT-474, conjugates DAR 8, comparators DAR not given. On the procedure:
as §1

Assay [4] deals with Ramos (non-Hodgkins lymphoma) cell line. The protocol:
as §1

Assay [5] has as its system CFPAC-1 cell line (Pancreatic). The note with it: Homo sapiens. The protocol:
as §1

Assay [6] deals with HCC1954 cell line (Breast). As to conditions: Homo sapiens, conjugates DAR 8. The protocol:
as §1

In the next assay the test system is Daudi lymphoma cell line. The protocol: as §1
The subject of assay [7] is NCI-N87 gastric cancer cell line. On the procedure:
as §1

Assay [8] deals with NCI-H2030 cell line (Lung). The note with it: Homo sapiens. The protocol: as §1

Regarding `CNCCOCCc1ccc(NC(=O)NCc2ccc3c(c2)CN(C2CCC(=O)NC2=O)C3=O)cc1Cl` (stereo not shown) [Compound P1, 1-(3-chloro-4-[2-[2-(methylamino)ethoxy]ethyl]phenyl)-3-[[2-(2,6-dioxopiperidin-3-yl)-1-oxo-3H-isoindol-5-yl]methyl]urea], the IC50 was above 100 nM in [1]; 100 nM in assay [2] (Homo sapiens, SK-BR-3, Breast, conjugates DAR 8); 13 nM in [3]; above 100 nM in [4] (Homo sapiens, Ramos); above 100 nM in assay [5]; above 100 nM in [6]. The IC50 with Daudi lymphoma cell line (Homo sapiens, Daudi) was above 100 nM; in assay [7] (Homo sapiens, NCI-N87, Gastric, conjugates DAR 8), above 100 nM; in [8], above 100 nM. For the same compound, the “anti-proliferative activity compared, in words” value in assay [2] (SK-BR-3 cells, neoDegrader conjugates (DAR 8) versus comparators, FIGS. 7 and 8) is “significantly less active”; in assay [7] (NCI-N87 cells, neoDegrader conjugates (DAR 8) versus comparators, FIGS. 16 and 17), “significantly less active”. Further, the “antiproliferative activity compared, in words” value in assay [4] (Ramos cells, rituximab neoDegrader conjugates versus comparators, FIG. 13) is on record as “less active”; in the assay with Daudi lymphoma cell line (Daudi cells, rituximab neoDegrader conjugates versus comparators, FIGS. 14 and 15) it was “less active”.

By IC50 is commonly meant the midpoint of a concentration-inhibition curve.
